Reference: patent publication US8624027B2, “Combination therapy for treating cancer and diagnostic assays for use therein” (AbbVie Inc., priority 2005, dated 2014)

What was measured:
[1] = Pharmacokinetic evaluation in rat; format: in vivo; conditions: male, Sprague-Dawley, plasma, single 5 mg/kg oral dose, Table 1, read-out: Pharmacokinetic area under the plasma concentration Curve (rat) AUC0-∞
Outline: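 Male Sprague-Dawley rats (n=3/group) received a single 2 mg/kg IV (jugular slow bolus) or 5 mg/kg oral gavage dose in 10% DMSO/PEG-400; tail-vein plasma sampled to 24 h. Acetonitrile-precipitated plasma quantified by LC-MS/MS (LOQ 0.01 μg/mL); AUC0-∞ by linear trapezoidal rule plus Ct/β extrapolation.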

B-cell lymphoma = test: Oral efficacy of EXAMPLE 1 in combination therapy, antitumorigenesis on B-cell lymphoma; format: in vivo

AUC(0-inf) [1]: 5.01 µM·h
SMILES: CC1(C)CCC(c2ccc(Cl)cc2)=C(CN2CCN(c3ccc(C(=O)NS(=O)(=O)c4ccc(N[C@H](CCN5CCOCC5)CSc5ccccc5)c(S(=O)(=O)C(F)(F)F)c4)cc3)CC2)C1 [Example 1, N-(4-(4-((2-(4-chlorophenyl)-5,5-dimethyl-1-cyclohex-1-en-1-yl)methyl)piperazin-1-yl)benzoyl)-4-(((1R)-3-(morpholin-4-yl)-1-((phenylsulfanyl)methyl)propyl)amino)-3-((trifluoromethyl)sulfonyl)benzenesulfonamide]
efficacy of cytotoxic agents during combination therapy (B-cell lymphoma; EXAMPLE 1 orally with etoposide, vincristine, CHOP, rituximab, rapamycin): synergistically enhanced efficacy
complete tumor regression (B-cell lymphoma; combination of EXAMPLE 1 and rapamycin): 70%
complete tumor regression (B-cell lymphoma; combination of EXAMPLE 1 and rituximab): 70%
complete tumor regression (B-cell lymphoma; combination of EXAMPLE 1 and vincristine): 10%
